For assay [1], the system named is S-100b/RAGE interaction in Glioma cells. Nature of the assay: Functional assay: inhibition of NF-κB in Glioma cells (S-100b/RAGE interaction). Format: cell-based. As to conditions: Glioma cell.
The target of assay [2] is T1, S-100b/RAGE interaction (Homo sapiens, UniProt Q15109).
T1 construct: generate soluble RAGE (sRAGE) comprised of the V and C domains
Nature of the assay: ELISA assay, S-100b binding to sRAGE. The conditions noted are these: plate-bound S100b, concentration at which 50% signal is inhibited. How it is done: (§1) S100b, β-amyloid and CML (500 ng/100 μL/well) in 100 mM sodium bicarbonate/sodium carbonate buffer (pH 9.8) is loaded onto the wells of a NUNC Maxisorp flat bottom 96—well microtitre plate. The plate is incubated at 4° C. overnight. The wells are aspirated and treated with 50 mM imidazole buffer saline (pH 7.2) (with 1 mM CaCl2/MgCl2) containing 1% bovine serum albumin (BSA) (300 μL/well) for two h at 37° C.
(§2) Test compounds are dissolved in nanopure water (concentration: 10-100 μM). DMSO may be used as co-solvent. 25 μL of test compound solution in 2% DMSO is added, along with 75 μL sRAGE (4.0×10^−4 mg/mL FAC) to each well and samples are incubated for 1 h at 37° C. The wells are washed 3 times with 155 mM NaCl pH 7.2 buffer saline and are soaked 10 seconds between each wash. Non-radioactive binding is performed by adding:
(§3) 10 μL Biotinylated goat F(ab′)2 Anti-mouse IgG. (8.0×10^−4 mg/mL, FAC)
(§4) 10 μL Alk-phos-Sterptavidin (3×10^−3 mg/mL FAC)
(§5) 10 μL Polyclonal antibody for sRAGE (FAC 6.0×10^−3 mg/mL) to 5 mL 50 mM imidazole buffer saline (pH 7.2) containing 0.2% bovine serum albumin and 1 mM CaCl2. The mixture is incubated for 30 minutes at 37° C. 100 μL complex is added to each well and incubation is allowed to proceed at rt for 1 h. Wells are washed 3 times with wash buffer and soaked 10 s between each wash. 100 μL 1 mg/mL (pNPP) in 1 M diethanolamine (pH adjusted to 9.8 with HCl) is added. […] The reaction is quenched with 10 μL of stop solution (0.5 N NaOH in 50% ethanol) and the absorbance is measured spectrophotometrically with a microplate reader at 405 nm.

The target of assay [3] is T2, β-amyloid—RAGE interaction (Homo sapiens, UniProt Q15109).
T2 construct: generate soluble RAGE (sRAGE) comprised of the V and C domains
T2 sequence (Q15109 23-342 limits assumed): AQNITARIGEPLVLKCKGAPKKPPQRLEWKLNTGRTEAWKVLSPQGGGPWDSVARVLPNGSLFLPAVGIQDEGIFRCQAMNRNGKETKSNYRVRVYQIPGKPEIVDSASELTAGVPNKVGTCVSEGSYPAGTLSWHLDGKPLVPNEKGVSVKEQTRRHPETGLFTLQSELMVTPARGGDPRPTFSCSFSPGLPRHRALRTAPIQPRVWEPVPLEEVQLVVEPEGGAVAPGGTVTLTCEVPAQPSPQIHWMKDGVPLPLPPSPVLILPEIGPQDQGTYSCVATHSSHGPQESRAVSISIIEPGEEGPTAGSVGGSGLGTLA
Nature of the assay: ELISA assay, β-amyloid binding to sRAGE. As to conditions: plate-bound β-amyloid. How it is done: as §1, §2, §3, §4, §5
A general note: In an ELISA, binding on a coated surface is turned into a signal by an enzyme label.

Assay [4] concerns the target T3, Carboxymethyl Lysine (CML)/RAGE interaction (Homo sapiens, UniProt Q15109).
T3 construct: generate soluble RAGE (sRAGE) comprised of the V and C domains
As to the kind of experiment: ELISA assay, CML binding to sRAGE. As to conditions: plate-bound CML. How it is done: as §1, §2, §3, §4, §5

pIC50: −log10 of the molar value. Where a name gives a salt, the structure may show the parent alone.

T3 sequence (Q15109 23-342 limits assumed): as above
T1 sequence (Q15109 23-342 limits assumed): as above

As usually defined, the pIC50 is the IC50 on a negative log10 scale, so that one unit is a factor of ten. The low end stands for a large IC50, the high end for a small IC50. The compound `CCCCOc1cc(C(=O)OCCN(CC)CC)ccc1NC(=O)[C@H](N)Cc1ccc2ccccc2c1` [Example 1, (R)-3-(2-Naphthyl)-2-aminopropionic Acid 4-Diethylaminoethoxycarbonyl-2-butoxyaniline Amide Dihydrochloride] had a pIC50 in assay [1] of 5.48.

Regarding “(R)-3-(4-Benzyloxyphenyl)-2-aminopropionic Acid 4-Diethylaminoethoxy-2-diethylaminoethoxyaniline Amide Trihydrochloride [Example 20]”, the values for the pIC50 in assay [2], in assay [3] and in assay [4] were 6.08, 6.00 and 6.00, respectively.

The values above are taken from patent US20060148760A1, “Method for the sysnthesis of compounds of formula I and their uses thereof” (TransTech Pharma, priority 2000, published 2006).
